Reference: ChEMBL document CHEMBL1124322, “Synthesis and alpha 2-adrenoceptor antagonist activity of some disulfonamidobenzoquinolizines” (J Med Chem, 1989)

Key:
[1] = target: T1, Adrenergic receptor alpha-2 (Rattus norvegicus, UniProt P22086+P19328+P22909); test: Antagonism of rat alpha-2 adrenergic receptor from rat vas deferens; type: functional
T1 sequence (P22086 whole entry): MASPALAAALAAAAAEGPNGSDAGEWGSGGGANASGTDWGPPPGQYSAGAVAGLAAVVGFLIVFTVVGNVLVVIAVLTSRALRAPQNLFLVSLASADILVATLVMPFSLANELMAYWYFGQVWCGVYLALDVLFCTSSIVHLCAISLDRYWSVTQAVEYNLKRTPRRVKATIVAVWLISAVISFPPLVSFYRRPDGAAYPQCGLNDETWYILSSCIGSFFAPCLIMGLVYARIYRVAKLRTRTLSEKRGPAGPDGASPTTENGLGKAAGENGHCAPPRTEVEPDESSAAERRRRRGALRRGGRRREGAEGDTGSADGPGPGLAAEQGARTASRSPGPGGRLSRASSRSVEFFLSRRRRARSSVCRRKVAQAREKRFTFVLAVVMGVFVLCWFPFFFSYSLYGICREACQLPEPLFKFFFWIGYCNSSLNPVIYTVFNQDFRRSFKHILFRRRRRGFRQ
T1 sequence (P19328 whole entry): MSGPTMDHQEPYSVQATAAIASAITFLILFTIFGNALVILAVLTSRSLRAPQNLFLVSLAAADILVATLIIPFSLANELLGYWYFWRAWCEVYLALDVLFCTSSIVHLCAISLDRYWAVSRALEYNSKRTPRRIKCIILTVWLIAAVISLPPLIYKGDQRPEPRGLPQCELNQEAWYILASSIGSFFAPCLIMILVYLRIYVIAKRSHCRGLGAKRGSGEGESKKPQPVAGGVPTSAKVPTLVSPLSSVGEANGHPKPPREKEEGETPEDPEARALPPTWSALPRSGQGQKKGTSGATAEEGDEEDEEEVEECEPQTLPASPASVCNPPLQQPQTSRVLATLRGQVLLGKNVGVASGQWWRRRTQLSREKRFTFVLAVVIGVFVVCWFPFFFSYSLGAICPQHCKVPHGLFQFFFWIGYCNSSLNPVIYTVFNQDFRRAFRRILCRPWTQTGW
T1 sequence (P22909 whole entry): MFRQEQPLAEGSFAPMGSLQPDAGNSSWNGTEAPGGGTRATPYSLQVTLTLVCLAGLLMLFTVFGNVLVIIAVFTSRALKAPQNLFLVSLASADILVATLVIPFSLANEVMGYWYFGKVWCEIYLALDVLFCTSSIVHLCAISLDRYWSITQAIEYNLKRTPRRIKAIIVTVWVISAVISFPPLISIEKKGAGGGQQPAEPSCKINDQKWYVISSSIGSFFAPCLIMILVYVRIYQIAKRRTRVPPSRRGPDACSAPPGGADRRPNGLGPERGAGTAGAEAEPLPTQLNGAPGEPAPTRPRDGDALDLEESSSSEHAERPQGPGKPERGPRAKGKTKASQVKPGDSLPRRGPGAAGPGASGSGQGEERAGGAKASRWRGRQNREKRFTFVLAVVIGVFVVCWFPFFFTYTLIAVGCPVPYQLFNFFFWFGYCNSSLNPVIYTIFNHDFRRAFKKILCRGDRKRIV

[2] = target: T2, Adrenergic receptor alpha-1 (Rattus norvegicus, UniProt P15823+P23944+P43140); test: Antagonist activity against alpha-1 adrenergic receptor of rat anococcygeus muscle.; type: functional
T2 sequence (P15823 whole entry): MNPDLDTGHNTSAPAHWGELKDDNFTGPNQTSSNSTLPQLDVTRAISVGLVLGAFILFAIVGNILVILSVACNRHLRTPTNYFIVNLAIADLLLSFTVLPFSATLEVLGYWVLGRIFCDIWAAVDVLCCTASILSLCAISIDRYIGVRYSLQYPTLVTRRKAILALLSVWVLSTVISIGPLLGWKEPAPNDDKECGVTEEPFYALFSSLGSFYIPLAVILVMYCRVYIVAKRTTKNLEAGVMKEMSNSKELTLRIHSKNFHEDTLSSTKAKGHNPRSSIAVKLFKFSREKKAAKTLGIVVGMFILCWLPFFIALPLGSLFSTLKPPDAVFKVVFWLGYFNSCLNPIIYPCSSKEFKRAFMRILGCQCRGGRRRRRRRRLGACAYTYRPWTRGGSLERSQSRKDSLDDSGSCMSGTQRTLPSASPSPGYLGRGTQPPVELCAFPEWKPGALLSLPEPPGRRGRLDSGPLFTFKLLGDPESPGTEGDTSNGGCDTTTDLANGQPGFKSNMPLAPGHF
T2 sequence (P23944 whole entry): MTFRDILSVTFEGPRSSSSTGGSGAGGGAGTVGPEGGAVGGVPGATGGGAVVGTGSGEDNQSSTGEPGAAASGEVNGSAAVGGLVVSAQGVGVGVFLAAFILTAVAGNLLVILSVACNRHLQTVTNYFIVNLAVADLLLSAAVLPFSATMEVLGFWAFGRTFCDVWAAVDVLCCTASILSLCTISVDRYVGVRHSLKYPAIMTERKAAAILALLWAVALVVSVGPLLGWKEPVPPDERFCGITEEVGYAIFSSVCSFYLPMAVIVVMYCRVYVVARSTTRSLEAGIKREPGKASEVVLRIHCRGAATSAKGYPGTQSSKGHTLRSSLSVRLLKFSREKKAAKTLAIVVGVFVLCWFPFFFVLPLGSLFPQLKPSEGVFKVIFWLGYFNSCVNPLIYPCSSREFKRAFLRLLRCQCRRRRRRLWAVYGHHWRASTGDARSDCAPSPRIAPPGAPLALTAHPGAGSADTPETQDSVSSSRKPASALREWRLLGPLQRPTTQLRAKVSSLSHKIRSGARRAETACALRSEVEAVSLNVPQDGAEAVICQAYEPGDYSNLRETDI
T2 sequence (P43140 whole entry): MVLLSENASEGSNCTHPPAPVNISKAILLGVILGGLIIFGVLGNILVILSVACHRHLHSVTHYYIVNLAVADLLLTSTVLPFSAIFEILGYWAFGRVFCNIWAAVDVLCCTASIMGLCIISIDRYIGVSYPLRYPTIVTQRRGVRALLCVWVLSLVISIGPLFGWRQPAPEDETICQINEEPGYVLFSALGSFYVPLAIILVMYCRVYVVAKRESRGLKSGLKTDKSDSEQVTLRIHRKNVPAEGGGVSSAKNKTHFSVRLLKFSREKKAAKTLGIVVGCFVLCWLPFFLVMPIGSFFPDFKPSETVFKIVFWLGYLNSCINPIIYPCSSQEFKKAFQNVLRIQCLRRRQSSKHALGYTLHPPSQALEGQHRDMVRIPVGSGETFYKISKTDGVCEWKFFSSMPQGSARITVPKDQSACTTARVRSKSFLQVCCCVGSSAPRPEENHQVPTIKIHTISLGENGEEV

[3] = target: Adrenergic receptor alpha (Rattus norvegicus) (UniProt P15823+P23944+P43140+P22086+P19328+P22909); test: Ratio of pA2 values at alpha-1 and alpha-2 adrenergic receptors.; type: protein assay
[4] = target: T1, Adrenergic receptor alpha-2; test: Antagonist activity against alpha-2 adrenergic receptor of rat vas deferens; type: functional, tissue-based
[5] = target: T2, Adrenergic receptor alpha-1; test: Antagonist activity against Alpha-1 adrenergic receptor of rat anococcygeus muscle; type: functional
[6] = system: Adrenergic receptor alpha (Rattus norvegicus); test: Selectivity ratio towards alpha-2 and alpha1 expressed as antilog(alpha-2pA2-alpha-1pA2)

Row | SMILES | pA2 [1] | pA2 [2] | Ratio [3] | pA2 [4] | pA2 [5] | Ratio [6]
1 | CS(=O)(=O)NCCN([C@@H]1CCN2CCc3ccccc3[C@@H]2C1)S(=O)(=O)c1ccc(Cl)cc1 | – | – | – | 8.04 | – | –
2 | O=S(=O)(CCl)NCCN([C@@H]1CCN2CCc3ccccc3[C@@H]2C1)S(=O)(=O)CCl | 8 | – | – | – | 6.33 | 47
3 | Cc1cccc(S(=O)(=O)N(CCNS(C)(=O)=O)[C@@H]2CCN3CCc4ccccc4[C@@H]3C2)c1 | 8 | 6.4 | 40 | – | – | –
4 | CCCS(=O)(=O)N(CCNS(=O)(=O)CC)[C@@H]1CCN2CCc3ccccc3[C@@H]2C1 | 8.1 | – | – | – | – | –
5 | CC(C)(CN([C@@H]1CCN2CCc3ccccc3[C@@H]2C1)S(C)(=O)=O)NS(C)(=O)=O | 6.14 | – | – | – | – | –
6 | CCCS(=O)(=O)N(C)[C@@H]1CCN2CCc3ccccc3[C@@H]2C1 | – | – | 55 | – | – | –
7 | CCS(=O)(=O)NCCN([C@@H]1CCN2CCc3ccccc3[C@@H]2C1)S(=O)(=O)CC | 8.27 | 5.54 | 540 | – | – | –
8 | CS(=O)(=O)NCCN([C@@H]1CCN2CCc3ccccc3[C@@H]2C1)S(=O)(=O)c1ccc(F)cc1 | 7.7 | 5.7 | 100 | – | – | –
9 | Cc1ccc(S(=O)(=O)N(CCNS(C)(=O)=O)[C@@H]2CCN3CCc4ccccc4[C@@H]3C2)cc1 | 8.4 | 5.8 | 400 | – | – | –
10 | CS(=O)(=O)NCCN([C@@H]1CCN2CCc3ccccc3[C@@H]2C1)S(=O)(=O)c1cccc([N+](=O)[O-])c1 | 7.69 | 6.7 | 10 | – | – | –
11 | CS(=O)(=O)N(CCNS(=O)(=O)c1ccccc1)[C@@H]1CCN2CCc3ccccc3[C@@H]2C1 | 5.9 | 5.9 | 1 | – | – | –
12 | CCS(=O)(=O)NCCN([C@@H]1CCN2CCc3ccccc3[C@@H]2C1)S(=O)(=O)c1ccc(C)cc1 | 7.62 | 6.6 | – | – | – | –
13 | CS(=O)(=O)NCCN([C@@H]1CCN2CCc3ccccc3[C@@H]2C1)S(=O)(=O)c1ccccc1 | 8.12 | 6.16 | 91 | – | – | –
14 | COc1ccc(S(=O)(=O)N(CCNS(C)(=O)=O)[C@@H]2CCN3CCc4ccccc4[C@@H]3C2)cc1 | 8.1 | 6.1 | 100 | – | – | –
15 | CN(CCN([C@@H]1CCN2CCc3ccccc3[C@@H]2C1)S(C)(=O)=O)S(C)(=O)=O | 6.03 | 5.5 | 3 | – | – | –

Second part, the compound after the results:

Row | pA2 [1] | pA2 [2] | Ratio [3] | pA2 [4] | pA2 [5] | Ratio [6] | SMILES
16 | 8.34 | 5.65 | 490 | – | – | – | CCS(=O)(=O)N(CCNS(C)(=O)=O)[C@@H]1CCN2CCc3ccccc3[C@@H]2C1
17 | 6.7 | 5.7 | 10 | – | – | – | CCCS(=O)(=O)NCCN([C@@H]1CCN2CCc3ccccc3[C@@H]2C1)S(C)(=O)=O
18 | 7.93 | 5.32 | 410 | – | – | – | CS(=O)(=O)NCCN([C@@H]1CCN2CCc3ccccc3[C@@H]2C1)S(C)(=O)=O
19 | 8.1 | – | – | – | 6.2 | 79 | CS(=O)(=O)N(CCNS(=O)(=O)CCl)[C@@H]1CCN2CCc3ccccc3[C@@H]2C1
20 | 7.73 | 5.65 | 120 | – | – | – | CCS(=O)(=O)NCCN([C@@H]1CCN2CCc3ccccc3[C@@H]2C1)S(C)(=O)=O
21 | 8.29 | 5.8 | 310 | – | – | – | CCCS(=O)(=O)N(CCNS(C)(=O)=O)[C@@H]1CCN2CCc3ccccc3[C@@H]2C1
22 | 6.4 | – | – | – | – | – | CS(=O)(=O)N(CCNS(=O)(=O)C(F)(F)F)[C@@H]1CCN2CCc3ccccc3[C@@H]2C1
23 | 5.66 | – | – | – | – | – | CS(=O)(=O)NCCCCN([C@@H]1CCN2CCc3ccccc3[C@@H]2C1)S(C)(=O)=O
24 | 5.7 | 5.7 | 1 | – | – | – | CS(=O)(=O)NCCCN([C@@H]1CCN2CCc3ccccc3[C@@H]2C1)S(C)(=O)=O
